# Measured values as given in PubChem BioAssay (NCI).
#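 Exposure lasted 48 hours, with cells grown in 96-well plates and compounds tested at five concentrations. GI50 is the concentration that inhibits growth by half. TGI: total growth inhibition.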
# How the values were obtained:
# Experiment in all cases: inhibition of tumour cell growth, NCI panel, 48 h
# SN12C renal = test system: SN12C renal
# SK-MEL-28 melanoma = test system: SK-MEL-28 melanoma
# SF-268 CNS = test system: SF-268 CNS
# SR leukemia = test system: SR leukemia
# EKVX NSCLC = test system: EKVX NSCLC
# MCF7 breast = test system: MCF7 breast
# UO-31 renal = test system: UO-31 renal
# MDA-MB-435 = test system: MDA-MB-435
# M14 melanoma = test system: M14 melanoma
# HOP-62 NSCLC = test system: HOP-62 NSCLC
# MDA-MB-231 breast = test system: MDA-MB-231 breast
# SF-539 CNS = test system: SF-539 CNS
# NCI-H23 lung = test system: NCI-H23 lung
# NCI-H460 lung = test system: NCI-H460 lung
# TK-10 renal = test system: TK-10 renal
# BT-549 breast = test system: BT-549 breast
# HCC-2998 colon = test system: HCC-2998 colon
# SW-620 colon = test system: SW-620 colon
# PC-3 prostate = test system: PC-3 prostate
# RXF 393 renal = test system: RXF 393 renal
# MALME-3M melanoma = test system: MALME-3M melanoma
# SF-295 CNS = test system: SF-295 CNS
# NCI/ADR-RES ovarian = test system: NCI/ADR-RES ovarian
# SK-MEL-2 melanoma = test system: SK-MEL-2 melanoma
# ACHN renal = test system: ACHN renal
# SK-MEL-5 melanoma = test system: SK-MEL-5 melanoma
# HOP-92 NSCLC = test system: HOP-92 NSCLC
# HT29 colon = test system: HT29 colon
# HS 578T breast = test system: HS 578T breast
# SNB-75 CNS = test system: SNB-75 CNS
# HCT-116 colon = test system: HCT-116 colon
# 786-0 renal = test system: 786-0 renal
# U251 CNS = test system: U251 CNS
# HCT-15 colon = test system: HCT-15 colon
# OVCAR-3 ovarian = test system: OVCAR-3 ovarian
# OVCAR-4 ovarian = test system: OVCAR-4 ovarian
# SNB-19 CNS = test system: SNB-19 CNS
# OVCAR-8 ovarian = test system: OVCAR-8 ovarian
# OVCAR-5 ovarian = test system: OVCAR-5 ovarian
# A549 NSCLC = test system: A549 NSCLC
# HL-60(TB) leukemia = test system: HL-60(TB) leukemia
# NCI-H226 lung = test system: NCI-H226 lung
# UACC-62 melanoma = test system: UACC-62 melanoma
# KM12 colon = test system: KM12 colon
# IGROV1 ovarian = test system: IGROV1 ovarian
# COLO 205 colon = test system: COLO 205 colon
# MOLT-4 leukemia = test system: MOLT-4 leukemia
# A498 renal = test system: A498 renal
# SK-OV-3 ovarian = test system: SK-OV-3 ovarian
# UACC-257 melanoma = test system: UACC-257 melanoma
# CAKI-1 renal = test system: CAKI-1 renal
# NCI-H522 lung = test system: NCI-H522 lung
# LOX IMVI melanoma = test system: LOX IMVI melanoma
# T-47D breast = test system: T-47D breast
# K-562 leukemia = test system: K-562 leukemia
# CCRF-CEM leukemia = test system: CCRF-CEM leukemia
# DU-145 prostate = test system: DU-145 prostate
smiles,measurement,setting,value
Nc1nc2ccc3[nH]ncc3c2c2c1CCCC2,GI50,SN12C renal,1.91 µM
same,TGI,SN12C renal,8.93 µM
same,GI50,SK-MEL-28 melanoma,1.62 µM
same,TGI,SK-MEL-28 melanoma,4.33 µM
same,GI50,SF-268 CNS,1.88 µM
same,TGI,SF-268 CNS,6.18 µM
same,GI50,SR leukemia,0.467 µM
same,GI50,EKVX NSCLC,1.54 µM
same,TGI,EKVX NSCLC,5.38 µM
same,GI50,MCF7 breast,0.403 µM
same,TGI,MCF7 breast,7.25 µM
same,GI50,UO-31 renal,2.13 µM
same,TGI,UO-31 renal,10.5 µM
same,GI50,MDA-MB-435,1.52 µM
same,TGI,MDA-MB-435,3.36 µM
same,GI50,M14 melanoma,1.53 µM
same,TGI,M14 melanoma,3.23 µM
same,GI50,HOP-62 NSCLC,1.99 µM
same,TGI,HOP-62 NSCLC,6.77 µM
same,GI50,MDA-MB-231 breast,2.74 µM
same,TGI,MDA-MB-231 breast,8.45 µM
same,GI50,SF-539 CNS,1.51 µM
same,TGI,SF-539 CNS,3.18 µM
same,GI50,NCI-H23 lung,1.41 µM
same,TGI,NCI-H23 lung,3.12 µM
same,GI50,NCI-H460 lung,1.6 µM
same,TGI,NCI-H460 lung,4.56 µM
same,GI50,TK-10 renal,2 µM
same,TGI,TK-10 renal,14.5 µM
same,GI50,BT-549 breast,1.38 µM
same,TGI,BT-549 breast,3.34 µM
same,GI50,HCC-2998 colon,1.61 µM
same,TGI,HCC-2998 colon,3.62 µM
same,GI50,SW-620 colon,1.55 µM
same,TGI,SW-620 colon,10 µM
same,GI50,PC-3 prostate,2.33 µM
same,TGI,PC-3 prostate,10.1 µM
same,GI50,RXF 393 renal,0.399 µM
same,TGI,RXF 393 renal,1.77 µM
same,GI50,MALME-3M melanoma,2.36 µM
same,TGI,MALME-3M melanoma,5.13 µM
same,GI50,SF-295 CNS,2.49 µM
same,TGI,SF-295 CNS,10.5 µM
same,GI50,NCI/ADR-RES ovarian,1.75 µM
same,TGI,NCI/ADR-RES ovarian,5.57 µM
same,GI50,SK-MEL-2 melanoma,2.12 µM
same,TGI,SK-MEL-2 melanoma,5.35 µM
same,GI50,ACHN renal,1.56 µM
same,TGI,ACHN renal,10.5 µM
same,GI50,SK-MEL-5 melanoma,1.54 µM
same,TGI,SK-MEL-5 melanoma,4.08 µM
same,GI50,HOP-92 NSCLC,2.09 µM
same,TGI,HOP-92 NSCLC,7.79 µM
same,GI50,HT29 colon,1.88 µM
same,TGI,HT29 colon,11.8 µM
same,GI50,HS 578T breast,1.95 µM
same,TGI,HS 578T breast,6.8 µM
same,GI50,SNB-75 CNS,1.36 µM
same,TGI,SNB-75 CNS,2.71 µM
same,GI50,HCT-116 colon,1 µM
same,TGI,HCT-116 colon,5.86 µM
same,GI50,786-0 renal,2.15 µM
same,TGI,786-0 renal,9.85 µM
same,GI50,U251 CNS,2.7 µM
same,TGI,U251 CNS,13.4 µM
same,GI50,HCT-15 colon,1.88 µM
same,TGI,HCT-15 colon,7.22 µM
same,GI50,OVCAR-3 ovarian,2.78 µM
same,TGI,OVCAR-3 ovarian,9.87 µM
same,GI50,OVCAR-4 ovarian,3.6 µM
same,TGI,OVCAR-4 ovarian,7.92 µM
same,GI50,SNB-19 CNS,2.64 µM
same,TGI,SNB-19 CNS,10.8 µM
same,GI50,OVCAR-8 ovarian,2.14 µM
same,TGI,OVCAR-8 ovarian,18.8 µM
same,GI50,OVCAR-5 ovarian,1.94 µM
same,TGI,OVCAR-5 ovarian,8.91 µM
same,GI50,A549 NSCLC,2.24 µM
same,TGI,A549 NSCLC,13.4 µM
same,GI50,HL-60(TB) leukemia,2.31 µM
same,TGI,HL-60(TB) leukemia,5.72 µM
same,GI50,NCI-H226 lung,1.48 µM
same,TGI,NCI-H226 lung,4.59 µM
same,GI50,UACC-62 melanoma,1.43 µM
same,TGI,UACC-62 melanoma,3.47 µM
same,GI50,KM12 colon,2.82 µM
same,TGI,KM12 colon,11.6 µM
same,GI50,IGROV1 ovarian,2.29 µM
same,TGI,IGROV1 ovarian,11.2 µM
same,GI50,COLO 205 colon,2.09 µM
same,TGI,COLO 205 colon,10.1 µM
same,GI50,MOLT-4 leukemia,2.81 µM
same,TGI,MOLT-4 leukemia,10.8 µM
same,GI50,A498 renal,1.64 µM
same,TGI,A498 renal,3.49 µM
same,GI50,SK-OV-3 ovarian,2.94 µM
same,TGI,SK-OV-3 ovarian,14.7 µM
same,GI50,UACC-257 melanoma,3.28 µM
same,TGI,UACC-257 melanoma,11.6 µM
same,GI50,CAKI-1 renal,0.609 µM
same,TGI,CAKI-1 renal,8.24 µM
same,GI50,NCI-H522 lung,2.17 µM
same,TGI,NCI-H522 lung,5.88 µM
same,GI50,LOX IMVI melanoma,1.29 µM
same,TGI,LOX IMVI melanoma,2.82 µM
same,GI50,T-47D breast,2.55 µM
same,TGI,T-47D breast,11.7 µM
same,GI50,K-562 leukemia,3.15 µM
same,TGI,K-562 leukemia,15 µM
same,GI50,CCRF-CEM leukemia,2.7 µM
same,TGI,CCRF-CEM leukemia,12.5 µM
same,GI50,DU-145 prostate,2.4 µM
same,TGI,DU-145 prostate,10.7 µM
